“And” between values parts separate entries of the source, which are not always exact repeats. Equal entries are not always repeated.
System: kidney tissues of treated or untreated rats
Assay: Real-time qRT-PCR of signature amplicons, validation stage, labeled and un-labeled samples (Table 23)
Conditions: for H31883_DB71_seg13 normalized qRT-PCR result / MUSCYCG1R_DB81_seg19-20 normalized qRT-PCR result / W41270_DB81_seg11 normalized qRT-PCR result: labeled sample, one line per animal
Method in brief: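 Each of four signature genes measured as wild-type and alternative-splice amplicons by qRT-PCR in treated or untreated rat kidney. Normalization was two-step: housekeeping-gene factor, then inter-plate correction from shared samples on a shuffled control plate; final values rescaled for display.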

[1] = day1, female rat kidney, listed as CadCl
[2] = day1, male rat kidney, listed as CadCl
[3] = day5, female rat kidney, listed as CadCl
[4] = day5, male rat kidney, listed as CadCl
[5] = day28, female rat kidney, listed as CadCl
[6] = day28, male rat kidney, listed as CadCl
[7] = labeled samples, day1, kidney of individual male/female rats, listed as CadCl
[8] = labeled samples, day5, kidney of individual male/female rats, listed as CadCl
[9] = labeled samples, day28, kidney of individual male/female rats, listed as CadCl
[10] = day1, female rat kidney, listed as Cis
[11] = day1, male rat kidney, listed as Cis
[12] = day28, female rat kidney, listed as Cis
[13] = day28, male rat kidney, listed as Cis
[14] = labeled samples, day1, kidney of individual male/female rats, listed as Cis
[15] = labeled samples, day5, kidney of individual male/female rats, listed as Cis
[16] = labeled samples, day28, kidney of individual male/female rats, listed as Cis
[17] = labeled samples, day1, kidney of individual male/female rats
[18] = labeled samples, day5, kidney of individual male/female rats
[19] = labeled samples, day28, kidney of individual male/female rats

[Cl][Cd][Cl] [Cadmium chloride]
H31883_DB71_seg13 normalized qRT-PCR result [1]: 1.194 and 1.772 and 1.894 | MUSCYCG1R_DB81_seg19-20 normalized qRT-PCR result [1]: 1.133 and 1.64 and 1.263 | W41270_DB81_seg11 normalized qRT-PCR result [1]: 1.059 and 1.155 and 1.372 | H31883_DB71_seg13 normalized qRT-PCR result [2]: 1.034 and 1.027 and 0.957 | MUSCYCG1R_DB81_seg19-20 normalized qRT-PCR result [2]: 0.951 and 1.108 and 1.069 | W41270_DB81_seg11 normalized qRT-PCR result [2]: 1.499 and 1.622 and 1.512 | H31883_DB71_seg13 normalized qRT-PCR result [3]: 1.782 and 0.906 | MUSCYCG1R_DB81_seg19-20 normalized qRT-PCR result [3]: 1.866 and 0.805 | W41270_DB81_seg11 normalized qRT-PCR result [3]: 2.282 and 0.854 | H31883_DB71_seg13 normalized qRT-PCR result [4]: 1.104 and 1.157 and 1.671 | MUSCYCG1R_DB81_seg19-20 normalized qRT-PCR result [4]: 1.083 and 1.409 and 2.393 | W41270_DB81_seg11 normalized qRT-PCR result [4]: 1.337 and 1.662 and 1.675 | H31883_DB71_seg13 normalized qRT-PCR result [5]: 0.259 and 0.783 and 1.033 | MUSCYCG1R_DB81_seg19-20 normalized qRT-PCR result [5]: 0.728 and 0.975 and 1.58 | W41270_DB81_seg11 normalized qRT-PCR result [5]: 0.414 and 0.827 and 1.098 | H31883_DB71_seg13 normalized qRT-PCR result [6]: 0.531 and 0.817 and 0.633 | MUSCYCG1R_DB81_seg19-20 normalized qRT-PCR result [6]: 0.672 and 0.836 and 0.333 | W41270_DB81_seg11 normalized qRT-PCR result [6]: 0.781 and 1.107 and 0.807 | H31883_DB71_seg13 normalized qRT-PCR expression (Cyclin-G1 (CCNG1) transcript) [7]: 0.919 and 1.005 and 1.446 and 1.239 and 1.632 and 1.143 | MUSCYCG1R_DB81_seg19-20 normalized qRT-PCR expression [7]: 1.224 and 1.097 and 2.129 and 2.276 and 1.856 and 3.981 | W41270_DB81_seg11 normalized qRT-PCR expression (tumor necrosis factor receptor superfamily, member 12a transcript) [7]: 0.727 and 1.183 and 1.265 and 0.993 and 0.983 and 1 | H31883_DB71_seg13 normalized qRT-PCR expression (Cyclin-G1 (CCNG1) transcript) [8]: 1.057 and 1.154 and 0.786 and 1.132 and 1.051 | MUSCYCG1R_DB81_seg19-20 normalized qRT-PCR expression [8]: 1.036 and 2.018 and 1.292 and 3.613 and 2.866 | W41270_DB81_seg11 normalized qRT-PCR expression (tumor necrosis factor receptor superfamily, member 12a transcript) [8]: 1.067 and 2.101 and 1.109 and 0.769 and 1.211 | H31883_DB71_seg13 normalized qRT-PCR expression (Cyclin-G1 (CCNG1) transcript) [9]: 0.785 and 0.652 and 0.712 and 0.681 and 0.849 and 0.578 | MUSCYCG1R_DB81_seg19-20 normalized qRT-PCR expression [9]: 0.769 and 1.356 and 1.068 and 0.68 and 2.128 and 0.932 | W41270_DB81_seg11 normalized qRT-PCR expression (tumor necrosis factor receptor superfamily, member 12a transcript) [9]: 1.138 and 0.529 and 0.772 and 0.578 and 0.654 and 0.522

N.N.[Cl][Pt][Cl] [Cisplatin]
H31883_DB71_seg13 normalized qRT-PCR result [10]: 0.844 and 1.209 and 1.345 | MUSCYCG1R_DB81_seg19-20 normalized qRT-PCR result [10]: 0.631 and 0.788 and 0.899 | W41270_DB81_seg11 normalized qRT-PCR result [10]: 0.81 and 1.261 and 1.096 | H31883_DB71_seg13 normalized qRT-PCR result [11]: 0.799 and 1.09 and 0.902 | MUSCYCG1R_DB81_seg19-20 normalized qRT-PCR result [11]: 0.495 and 1.64 and 0.811 | W41270_DB81_seg11 normalized qRT-PCR result [11]: 0.815 and 2.455 and 1.176 | H31883_DB71_seg13 normalized qRT-PCR result [12]: 1.749 and 0.786 and 1.864 | MUSCYCG1R_DB81_seg19-20 normalized qRT-PCR result [12]: 2.301 and 1.555 and 3.336 | W41270_DB81_seg11 normalized qRT-PCR result [12]: 2.504 and 2.643 and 5.783 | H31883_DB71_seg13 normalized qRT-PCR result [13]: 1.587 and 0.786 and 1.371 | MUSCYCG1R_DB81_seg19-20 normalized qRT-PCR result [13]: 4.504 and 1.428 and 1.753 | W41270_DB81_seg11 normalized qRT-PCR result [13]: 5.917 and 3.371 and 3.008 | H31883_DB71_seg13 normalized qRT-PCR expression (Cyclin-G1 (CCNG1) transcript) [14]: 0.668 and 0.853 and 1.416 and 2.092 and 2.559 and 1.134 | MUSCYCG1R_DB81_seg19-20 normalized qRT-PCR expression [14]: 0.806 and 1.514 and 1.492 and 3.259 and 2.003 and 1.277 | W41270_DB81_seg11 normalized qRT-PCR expression (tumor necrosis factor receptor superfamily, member 12a transcript) [14]: 0.679 and 0.759 and 1.331 and 1.029 and 1.224 and 0.496 | AI045075_DB71_seg6 normalized qRT-PCR expression (Interferon stimulated exonuclease 20 (ISG20) transcript) [15]: 1.804 and 1.683 and 4.298 and 1.503 and 0.93 and 1.09 | H31883_DB71_seg13 normalized qRT-PCR expression (Cyclin-G1 (CCNG1) transcript) [15]: 3.816 and 5.526 and 3.771 and 1.509 and 1.642 and 2.695 | MUSCYCG1R_DB81_seg19-20 normalized qRT-PCR expression [15]: 2.034 and 4.156 and 4.947 and 0.981 and 3.172 and 1.643 | W41270_DB81_seg11 normalized qRT-PCR expression (tumor necrosis factor receptor superfamily, member 12a transcript) [15]: 1.262 and 3.597 and 1.404 and 0.843 and 2.113 and 0.705 | W64472_DB81_seg2 normalized qRT-PCR expression (Interferon stimulated exonuclease 20 (ISG20) transcript) [15]: 1.795 and 3.64 and 6.414 and 1.976 and 1.448 and 1.265 | W83813_DB81_seg27 normalized qRT-PCR expression [15]: 1.716 and 0.857 and 1.461 and 1.366 and 0.758 and 1.265 | H31883_DB71_seg13 normalized qRT-PCR expression (Cyclin-G1 (CCNG1) transcript) [16]: 4.41 and 2.839 and 2.398 and 2.653 and 5.592 and 3.563 | MUSCYCG1R_DB81_seg19-20 normalized qRT-PCR expression [16]: 3.509 and 3.443 and 1.813 and 3.094 and 7.02 and 3.473 | W41270_DB81_seg11 normalized qRT-PCR expression (tumor necrosis factor receptor superfamily, member 12a transcript) [16]: 4.741 and 4.104 and 2.053 and 1.904 and 4.516 and 3.866

Gentamycin
H31883_DB71_seg13 normalized qRT-PCR result (day1, female rat kidney): 0.963 and 0.98 and 0.898 | MUSCYCG1R_DB81_seg19-20 normalized qRT-PCR result (day1, female rat kidney): 1.251 and 0.889 and 2.053 | W41270_DB81_seg11 normalized qRT-PCR result (day1, female rat kidney): 0.763 and 0.963 and 1.408 | H31883_DB71_seg13 normalized qRT-PCR result (day1, male rat kidney): 1.02 and 1.409 and 1.161 | MUSCYCG1R_DB81_seg19-20 normalized qRT-PCR result (day1, male rat kidney): 1.072 and 1.848 and 1.221 | W41270_DB81_seg11 normalized qRT-PCR result (day1, male rat kidney): 1.567 and 1.869 and 1.48 | H31883_DB71_seg13 normalized qRT-PCR result (day28, female rat kidney): 0.421 and 0.441 and 0.434 | MUSCYCG1R_DB81_seg19-20 normalized qRT-PCR result (day28, female rat kidney): 0.967 and 2.632 and 1.78 | W41270_DB81_seg11 normalized qRT-PCR result (day28, female rat kidney): 0.806 and 1.079 and 1.164 | H31883_DB71_seg13 normalized qRT-PCR result (day28, male rat kidney): 0.852 and 0.857 and 0.756 | MUSCYCG1R_DB81_seg19-20 normalized qRT-PCR result (day28, male rat kidney): 1.734 and 3.06 and 1.469 | W41270_DB81_seg11 normalized qRT-PCR result (day28, male rat kidney): 1.55 and 1.353 and 1.245 | H31883_DB71_seg13 normalized qRT-PCR expression (Cyclin-G1 (CCNG1) transcript) [17]: 0.772 and 1.118 and 0.987 and 1.115 and 0.84 and 1.053 | MUSCYCG1R_DB81_seg19-20 normalized qRT-PCR expression [17]: 0.842 and 1.155 and 1.361 and 2.011 and 1.387 and 2.861 | W41270_DB81_seg11 normalized qRT-PCR expression (tumor necrosis factor receptor superfamily, member 12a transcript) [17]: 1.361 and 1.037 and 0.904 and 1.08 and 2.078 and 0.85 | Label: true label (Normal/Toxic), known renal toxic effect (labeled samples, day5): Toxic | AI045075_DB71_seg6 normalized qRT-PCR expression (Interferon stimulated exonuclease 20 (ISG20) transcript) [18]: 1.337 and 1.374 and 1.402 and 1.778 and 1.636 and 1.256 | H31883_DB71_seg13 normalized qRT-PCR expression (Cyclin-G1 (CCNG1) transcript) [18]: 0.948 and 1.09 and 0.78 and 1.142 and 1.402 and 1.515 | MUSCYCG1R_DB81_seg19-20 normalized qRT-PCR expression [18]: 1.085 and 0.993 and 0.955 and 1.442 and 1.842 and 1.644 | W41270_DB81_seg11 normalized qRT-PCR expression (tumor necrosis factor receptor superfamily, member 12a transcript) [18]: 0.983 and 0.954 and 1.104 and 1.699 and 0.82 and 2.64 | W64472_DB81_seg2 normalized qRT-PCR expression (Interferon stimulated exonuclease 20 (ISG20) transcript) [18]: 1.733 and 2.048 and 1.962 and 1.427 and 1.403 and 1.53 | W83813_DB81_seg27 normalized qRT-PCR expression [18]: 1.688 and 1.042 and 0.702 and 1.441 and 1.395 and 0.76 | H31883_DB71_seg13 normalized qRT-PCR expression (Cyclin-G1 (CCNG1) transcript) [19]: 0.853 and 0.861 and 0.553 and 0.817 and 0.554 and 0.842 | MUSCYCG1R_DB81_seg19-20 normalized qRT-PCR expression [19]: 0.863 and 1.072 and 0.617 and 0.865 and 0.729 and 1.661 | W41270_DB81_seg11 normalized qRT-PCR expression (tumor necrosis factor receptor superfamily, member 12a transcript) [19]: 1.614 and 1.342 and 1.315 and 1.194 and 1.188 and 1.941

— patent US20160177395A1, “BIOMARKERS FOR THE PREDICTION OF RENAL INJURY” (priority 2007, published 2016)
